Experiments:
Format in all cases: cell-based
Details in all cases: 72 h
NCI-N87 cells = assay: CellTiter-Glo cell viability, NCI-N87
Experimental: (§1) The cell viability of 50 cancer cell lines was studied after treatment with Compound 121. Inhibition concentration values at 50% (IC50) were determined using CellTiter-Glo luminescent cell viability assay after incubation with different compound concentrations. GI50 values were determined according to the examples described above. Each cell line was treated with Compound 121, a standard chemotherapy drug as a reference control, and culture medium as a vehicle control.
(§2) All cells were cultured in media supplemented with 10-15% FBS at 37° C. in the presence of 5% CO2 and at 95% humidity. The culture medium was purchased from GIBCO or Sigma, USA. Cisplatin was chosen as the reference control and purchased from Hospira Australia Pty Ltd. The cell lines studied are presented in Table 5.
(§3) Cells were harvested during a logarithmic growth period and cell number count was determined using Count-star. Cell concentrations were adjusted to 4.44×10^4 cells/mL with respective culture medium. 90 μL of cell suspensions were added to two 96-well plates (plates A and B) with a final cell density of 4×10^3 cells/well.
(§4) 10 μL of culture medium was added to each well of plate A for TO reading. The plate was allowed to equilibrate at room temperature for approximately 30 min. 50 μL of CellTiter-Glo was added to each well and the contents were mixed for 5 min on an orbital shaker to induce cell lysis. The plate was allowed to incubate at room temperature for 20 min to stabilize luminescent signal.
(§5) 10 μM Compound 121 in media was serially diluted 3.16-fold to achieve 9 dose levels. Similarly, 100 μM reference control in media was serially diluted 3.16-fold to prepare reference control solutions. 10 μL drug solution and 10 μL of reference control was dispensed into each well in plate B.
(§6) Test plate B was incubated for 72 h in a humidified incubator at 37° C. in the presence of 5% CO2 and then subjected to CTG assay. The plate was allowed to equilibrate at room temperature for about 30 min. 50 μL of CellTiter-Glo was added to each well and the contents were mixed for 5 min on an orbital shaker to induce cell lysis. The plate was allowed to incubate at room temperature for 20 min to stabilize luminescent signal.
(§7) IC50 and GI50 values for each of the 50 cell lines are presented in Table 6 and were calculated based on the dose-response curves depicted in FIGS. 1-50. The dose-response curves were fitted using nonlinear regression model with a sigmoidal dose response. The formula for calculating survival rate was calculated by the formula:
(§8) Survival rate (%)=(LumTest article−LumMedium control)/(LumNone treated−LumMedium control)×100.

KARPAS-299 cells = assay: CellTiter-Glo cell viability, KARPAS-299
Experimental: as §1, §2, §3, §4, §5, §6, §7, §8

SK-MEL-28 cells = assay: CellTiter-Glo cell viability, SK-MEL-28
Experimental: as §1, §2, §3, §4, §5, §6, §7, §8

143B cells = assay: CellTiter-Glo cell viability, 143B
Experimental: as §1, §2, §3, §4, §5, §6, §7, §8

OVCAR-3 cells = assay: CellTiter-Glo cell viability, OVCAR-3
Experimental: as §1, §2, §3, §4, §5, §6, §7, §8

SK-OV-3 cells = assay: CellTiter-Glo cell viability, SK-OV-3
Experimental: as §1, §2, §3, §4, §5, §6, §7, §8

MDA-MB-453 cells = assay: CellTiter-Glo cell viability, MDA-MB-453
Experimental: as §1, §2, §3, §4, §5, §6, §7, §8

RPMI 8226 cells = assay: CellTiter-Glo cell viability, RPMI 8226
Experimental: as §1, §2, §3, §4, §5, §6, §7, §8

K-562 cells = assay: CellTiter-Glo cell viability, K-562
Experimental: as §1, §2, §3, §4, §5, §6, §7, §8

A-172 cells = assay: CellTiter-Glo cell viability, A-172
Experimental: as §1, §2, §3, §4, §5, §6, §7, §8

MES-SA/DX5 cells = assay: CellTiter-Glo cell viability, MES-SA/DX5
Experimental: as §1, §2, §3, §4, §5, §6, §7, §8

22Rv1 cells = assay: CellTiter-Glo cell viability, 22Rv1
Experimental: as §1, §2, §3, §4, §5, §6, §7, §8

NCI-H1155 cells = assay: CellTiter-Glo cell viability, NCI-H1155
Experimental: as §1, §2, §3, §4, §5, §6, §7, §8

HL-60 cells = assay: CellTiter-Glo cell viability, HL-60
Experimental: as §1, §2, §3, §4, §5, §6, §7, §8

SW579 cells = assay: CellTiter-Glo cell viability, SW579
Experimental: as §1, §2, §3, §4, §5, §6, §7, §8

TJ905 cells = assay: CellTiter-Glo cell viability, TJ905
Experimental: as §1, §2, §3, §4, §5, §6, §7, §8

JEG-3 cells = assay: CellTiter-Glo cell viability, JEG-3
Experimental: as §1, §2, §3, §4, §5, §6, §7, §8

JHH-5 cells = assay: CellTiter-Glo cell viability, JHH-5
Experimental: as §1, §2, §3, §4, §5, §6, §7, §8

BT474 cells = assay: CellTiter-Glo cell viability, BT474
Experimental: as §1, §2, §3, §4, §5, §6, §7, §8

A2058 cells = assay: CellTiter-Glo cell viability, A2058
Experimental: as §1, §2, §3, §4, §5, §6, §7, §8

AN3 CA cells = assay: CellTiter-Glo cell viability, AN3 CA
Experimental: as §1, §2, §3, §4, §5, §6, §7, §8

A-673 cells = assay: CellTiter-Glo cell viability, A-673
Experimental: as §1, §2, §3, §4, §5, §6, §7, §8

[1] = top conc. 10 μM Compound 121, 100 μM cisplatin

N.N.[Cl][Pt][Cl] [Cisplatin, reference compound]
GI50 (NCI-N87 cells; read-out: Absolute GI50): 0.88 µM
IC50 (NCI-N87 cells; read-out: Absolute IC50): 2.26 µM
% inhibition at top conc. (NCI-N87 cells; [1]): 90.08%
GI50 (KARPAS-299 cells; read-out: Absolute GI50): 1.49 µM
IC50 (KARPAS-299 cells; read-out: Absolute IC50): 1.63 µM
% inhibition at top conc. (KARPAS-299 cells; [1]): 99.99%
GI50 (SK-MEL-28 cells; read-out: Absolute GI50): 7.09 µM
IC50 (SK-MEL-28 cells; read-out: Absolute IC50): 8.9 µM
% inhibition at top conc. (SK-MEL-28 cells; [1]): 99.29%
GI50 (143B cells; read-out: Absolute GI50): 1.02 µM
IC50 (143B cells; read-out: Absolute IC50): 1.08 µM
% inhibition at top conc. (143B cells; [1]): 99.94%
GI50 (OVCAR-3 cells; read-out: Absolute GI50): 3.81 µM
IC50 (OVCAR-3 cells; read-out: Absolute IC50): 4.29 µM
% inhibition at top conc. (OVCAR-3 cells; [1]): 91.14%
GI50 (SK-OV-3 cells; read-out: Absolute GI50): 5.08 µM
IC50 (SK-OV-3 cells; read-out: Absolute IC50): 6.69 µM
% inhibition at top conc. (SK-OV-3 cells; [1]): 81.79%
GI50 (MDA-MB-453 cells; read-out: Absolute GI50): 7.05 µM
IC50 (MDA-MB-453 cells; read-out: Absolute IC50): 9.51 µM
% inhibition at top conc. (MDA-MB-453 cells; [1]): 96.82%
GI50 (RPMI 8226 cells; read-out: Absolute GI50): 2.38 µM
IC50 (RPMI 8226 cells; read-out: Absolute IC50): 3.62 µM
% inhibition at top conc. (RPMI 8226 cells; [1]): 99.76%
GI50 (K-562 cells; read-out: Absolute GI50): 4.21 µM
IC50 (K-562 cells; read-out: Absolute IC50): 4.51 µM
% inhibition at top conc. (K-562 cells; [1]): 97.94%
GI50 (A-172 cells; read-out: Absolute GI50): 15.9 µM
IC50 (A-172 cells; read-out: Absolute IC50): 20.3 µM
% inhibition at top conc. (A-172 cells; [1]): 93.09%
GI50 (MES-SA/DX5 cells; read-out: Absolute GI50): 1.96 µM
IC50 (MES-SA/DX5 cells; read-out: Absolute IC50): 2.21 µM
% inhibition at top conc. (MES-SA/DX5 cells; [1]): 99.94%
GI50 (22Rv1 cells; read-out: Absolute GI50): 1.88 µM
IC50 (22Rv1 cells; read-out: Absolute IC50): 3.07 µM
% inhibition at top conc. (22Rv1 cells; [1]): 98.28%
GI50 (NCI-H1155 cells; read-out: Absolute GI50): 1.52 µM
IC50 (NCI-H1155 cells; read-out: Absolute IC50): 1.75 µM
% inhibition at top conc. (NCI-H1155 cells; [1]): 90.61%
GI50 (HL-60 cells; read-out: Absolute GI50): 1.34 µM
IC50 (HL-60 cells; read-out: Absolute IC50): 1.46 µM
% inhibition at top conc. (HL-60 cells; [1]): 99.99%
GI50 (SW579 cells; read-out: Absolute GI50): 1.83 µM
IC50 (SW579 cells; read-out: Absolute IC50): 2.24 µM
% inhibition at top conc. (SW579 cells; [1]): 99.88%
GI50 (TJ905 cells; read-out: Absolute GI50): 6.56 µM
IC50 (TJ905 cells; read-out: Absolute IC50): 9.85 µM
% inhibition at top conc. (TJ905 cells; [1]): 80.57%
GI50 (JEG-3 cells; read-out: Absolute GI50): 5.5 µM
IC50 (JEG-3 cells; read-out: Absolute IC50): 9.4 µM
% inhibition at top conc. (JEG-3 cells; [1]): 99.90%
GI50 (JHH-5 cells; read-out: Absolute GI50): 1.97 µM
IC50 (JHH-5 cells; read-out: Absolute IC50): 2.27 µM
% inhibition at top conc. (JHH-5 cells; [1]): 87.18%
GI50 (BT474 cells; read-out: Absolute GI50): 39.3 µM
IC50 (BT474 cells; read-out: Absolute IC50): 45.1 µM
% inhibition at top conc. (BT474 cells; [1]): 59.96%
GI50 (A2058 cells; read-out: Absolute GI50): 2.38 µM
IC50 (A2058 cells; read-out: Absolute IC50): 3.11 µM
% inhibition at top conc. (A2058 cells; [1]): 99.85%
GI50 (AN3 CA cells; read-out: Absolute GI50): 3.68 µM
IC50 (AN3 CA cells; read-out: Absolute IC50): 4.38 µM
% inhibition at top conc. (AN3 CA cells; [1]): 99.95%
GI50 (A-673 cells; read-out: Absolute GI50): 0.4 µM
IC50 (A-673 cells; read-out: Absolute IC50): 1.12 µM
% inhibition at top conc. (A-673 cells; [1]): 99.59%
